Test results published in patent US20080269266A1, “NOVEL COMPOUNDS 747” (ASTRAZENECA AB, priority 2007, published 2008).

Assays:
[1] = LogD (shake flask method); type: physicochemical
Description: LogD can be measured using the generic shake flask method as described in Lars-Goran Danielsson, Yu Hui Zhang, Trends in Analytical Chemistry, 1996, 15(4), 188-196, and also by the method described in B. Law and D. Temesi, J. Chromatogr. B 748 (2000), 21-30.

[2] = biological target: T1, human cytochrome P450 (CYP) 1A2 (Homo sapiens, UniProt P05177); experiment: Cytochrome P450 Inhibition Assay 1A2; type: in vitro ADME; settings: test compound final concentrations 0.1-10 μM; substrate CEC
T1 construct: made in house; host or cells: yeast cell lines (microsomal fractions)
T1 sequence (P05177 1-516): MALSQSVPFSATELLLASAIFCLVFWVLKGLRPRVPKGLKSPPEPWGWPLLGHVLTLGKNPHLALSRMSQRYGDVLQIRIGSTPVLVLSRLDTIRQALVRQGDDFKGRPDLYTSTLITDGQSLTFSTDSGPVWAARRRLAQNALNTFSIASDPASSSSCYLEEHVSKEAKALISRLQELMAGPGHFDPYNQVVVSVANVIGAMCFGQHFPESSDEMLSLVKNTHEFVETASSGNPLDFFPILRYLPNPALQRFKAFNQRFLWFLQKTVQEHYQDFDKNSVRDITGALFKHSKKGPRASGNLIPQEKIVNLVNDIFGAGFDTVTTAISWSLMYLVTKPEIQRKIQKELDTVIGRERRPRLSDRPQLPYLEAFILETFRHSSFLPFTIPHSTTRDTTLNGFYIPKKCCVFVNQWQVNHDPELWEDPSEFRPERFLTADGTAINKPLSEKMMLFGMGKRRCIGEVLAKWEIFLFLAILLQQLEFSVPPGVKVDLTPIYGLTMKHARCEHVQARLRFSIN
Experimental: The inhibitory potential (IC50) of test compounds against 5 human cytochrome P450 (CYP) isoforms (1A2, 2C9, 2C19, 3A4 and 2D6) was assessed using an automated fluorescent end point in vitro assay modified from Crespi (Crespi and Stresser, 2000). Microsomal subcellular fractions prepared from Yeast cell lines expressing each human CYP isoform were used as an enzyme source in this assay. The activity of the 5 major human CYPs was determined from the biotransformation of a number of coumarin substrates to fluorescent metabolites, in the presence of NADPH. […] Comparison of the fluorescence observed in the presence of varying concentrations of test compound with that seen in its absence allowed an IC50 value to be calculated. Stock solutions of each CYP, with its respective substrate, were prepared in phosphate buffer pH7.4 (see Table 1) and 178 μl was added to the well of a black solid, flat bottom, 300 μl 96 well is microtitre plate (Corning Costar). […] The appropriate solvent controls and substrate blanks were included in each experiment to assess control activity and identify any inherent fluorescence due to the test compounds. […] The plates were read on a fluorimeter (Spectrafluor Plus) at the appropriate excitation and emission wavelengths (listed in Table 2) and the percent activity, corrected for control, was plotted against the test compound concentration.

[3] = biological target: T2, human cytochrome P450 (CYP) 2C9 (Homo sapiens, UniProt P11712); experiment: Cytochrome P450 Inhibition Assay 2C9; type: in vitro ADME; settings: test compound final concentrations 0.1-10 μM; substrate MFC
T2 construct: made in house; host or cells: yeast cell lines (microsomal fractions)
T2 sequence (P11712 whole entry): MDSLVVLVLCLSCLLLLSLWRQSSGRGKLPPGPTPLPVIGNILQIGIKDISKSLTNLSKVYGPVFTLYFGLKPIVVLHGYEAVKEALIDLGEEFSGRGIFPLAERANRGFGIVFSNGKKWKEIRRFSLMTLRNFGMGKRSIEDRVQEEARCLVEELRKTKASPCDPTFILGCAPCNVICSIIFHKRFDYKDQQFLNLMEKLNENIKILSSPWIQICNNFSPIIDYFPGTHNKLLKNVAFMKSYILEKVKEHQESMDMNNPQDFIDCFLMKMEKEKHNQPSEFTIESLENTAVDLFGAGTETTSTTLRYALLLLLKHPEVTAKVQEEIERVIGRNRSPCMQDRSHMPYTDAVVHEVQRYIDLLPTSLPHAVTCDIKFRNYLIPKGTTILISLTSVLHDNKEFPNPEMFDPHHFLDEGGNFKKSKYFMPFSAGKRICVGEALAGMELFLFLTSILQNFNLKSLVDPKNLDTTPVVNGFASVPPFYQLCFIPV
Experimental: (§1) The inhibitory potential (IC50) of test compounds against 5 human cytochrome P450 (CYP) isoforms (1A2, 2C9, 2C19, 3A4 and 2D6) was assessed using an automated fluorescent end point in vitro assay modified from Crespi (Crespi and Stresser, 2000). Microsomal subcellular fractions prepared from Yeast cell lines expressing each human CYP isoform were used as an enzyme source in this assay. The activity of the 5 major human CYPs was determined from the biotransformation of a number of coumarin substrates to fluorescent metabolites, in the presence of NADPH. […] Stock solutions of each CYP, with its respective substrate, were prepared in phosphate buffer pH7.4 (see Table 1) and 178 μl was added to the well of a black solid, flat bottom, 300 μl 96 well is microtitre plate (Corning Costar). […] After pre-incubating at 37° C. for 5 min the reactions were started with addition of NADPH (20 μl, concentration shown in Table 1). […] The appropriate solvent controls and substrate blanks were included in each experiment to assess control activity and identify any inherent fluorescence due to the test compounds. […] The plates were read on a fluorimeter (Spectrafluor Plus) at the appropriate excitation and emission wavelengths (listed in Table 2) and the percent activity, corrected for control, was plotted against the test compound concentration.

[4] = biological target: T3, human cytochrome P450 (CYP) 2C19 (Homo sapiens, UniProt P33261); experiment: Cytochrome P450 Inhibition Assay 2C19; type: in vitro ADME; settings: test compound final concentrations 0.1-10 μM; substrate MFC; read-out: Ic50 2C19
T3 construct: made in house; host or cells: yeast cell lines (microsomal fractions)
T3 sequence (P33261 whole entry): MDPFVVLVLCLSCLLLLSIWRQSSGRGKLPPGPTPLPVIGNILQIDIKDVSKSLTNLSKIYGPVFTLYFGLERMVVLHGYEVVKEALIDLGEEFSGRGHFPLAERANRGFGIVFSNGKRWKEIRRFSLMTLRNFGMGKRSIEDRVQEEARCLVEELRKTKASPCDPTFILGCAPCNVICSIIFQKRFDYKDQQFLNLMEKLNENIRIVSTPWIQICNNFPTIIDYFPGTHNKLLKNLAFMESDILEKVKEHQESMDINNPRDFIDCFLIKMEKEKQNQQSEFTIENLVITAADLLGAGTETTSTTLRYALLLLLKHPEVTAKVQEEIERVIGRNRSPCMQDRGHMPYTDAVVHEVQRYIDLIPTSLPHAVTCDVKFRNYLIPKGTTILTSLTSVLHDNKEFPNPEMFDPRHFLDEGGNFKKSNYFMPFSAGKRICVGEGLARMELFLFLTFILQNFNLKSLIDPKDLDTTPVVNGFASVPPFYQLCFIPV
Experimental: The inhibitory potential (IC50) of test compounds against 5 human cytochrome P450 (CYP) isoforms (1A2, 2C9, 2C19, 3A4 and 2D6) was assessed using an automated fluorescent end point in vitro assay modified from Crespi (Crespi and Stresser, 2000). Microsomal subcellular fractions prepared from Yeast cell lines expressing each human CYP isoform were used as an enzyme source in this assay. The activity of the 5 major human CYPs was determined from the biotransformation of a number of coumarin substrates to fluorescent metabolites, in the presence of NADPH. […] Stock solutions of each CYP, with its respective substrate, were prepared in phosphate buffer pH7.4 (see Table 1) and 178 μl was added to the well of a black solid, flat bottom, 300 μl 96 well is microtitre plate (Corning Costar). […] After pre-incubating at 37° C. for 5 min the reactions were started with addition of NADPH (20 μl, concentration shown in Table 1). The final solvent content in each incubation was <=2% (1% from the test compound and a maximum of 1% from the substrate). The appropriate solvent controls and substrate blanks were included in each experiment to assess control activity and identify any inherent fluorescence due to the test compounds. In addition, known inhibitors of each CYP were included as positive controls (see Table 3 for inhibitor concentrations and expected IC50 ranges). The reactions were stopped at defined timepoints (see Table 1) by quenching with 100 μl of solvent (acetonitrile:0.5M Tris buffer 80:20 v/v). The plates were read on a fluorimeter (Spectrafluor Plus) at the appropriate excitation and emission wavelengths (listed in Table 2) and the percent activity, corrected for control, was plotted against the test compound concentration.

[5] = biological target: T4, human cytochrome P450 (CYP) 3A4 (Homo sapiens, UniProt P08684); experiment: Cytochrome P450 Inhibition Assay 3A4; type: in vitro ADME; settings: test compound final concentrations 0.1-10 μM; substrate BFC
T4 construct: made in house; host or cells: yeast cell lines (microsomal fractions)
T4 sequence (P08684 whole entry): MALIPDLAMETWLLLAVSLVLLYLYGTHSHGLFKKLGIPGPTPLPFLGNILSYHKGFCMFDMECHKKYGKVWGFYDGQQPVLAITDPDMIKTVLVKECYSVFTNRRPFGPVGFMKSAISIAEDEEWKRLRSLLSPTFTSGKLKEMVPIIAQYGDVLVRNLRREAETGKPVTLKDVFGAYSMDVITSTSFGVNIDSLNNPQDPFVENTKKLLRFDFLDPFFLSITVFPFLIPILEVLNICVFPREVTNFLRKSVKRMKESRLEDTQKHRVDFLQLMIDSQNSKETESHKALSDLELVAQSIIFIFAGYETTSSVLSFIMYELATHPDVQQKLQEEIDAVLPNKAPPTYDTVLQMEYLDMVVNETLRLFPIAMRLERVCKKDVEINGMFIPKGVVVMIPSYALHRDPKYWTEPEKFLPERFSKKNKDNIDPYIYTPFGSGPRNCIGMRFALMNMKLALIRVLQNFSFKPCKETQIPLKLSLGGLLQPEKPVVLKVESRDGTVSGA
Experimental: as §1

[6] = biological target: hERG (human ether-a-go-go-related gene) ion channel (Homo sapiens, UniProt Q12809); experiment: hERG; type: cell-based
hERG (human ether-a-go-go-related gene) ion channel, sequence (Q12809 whole entry): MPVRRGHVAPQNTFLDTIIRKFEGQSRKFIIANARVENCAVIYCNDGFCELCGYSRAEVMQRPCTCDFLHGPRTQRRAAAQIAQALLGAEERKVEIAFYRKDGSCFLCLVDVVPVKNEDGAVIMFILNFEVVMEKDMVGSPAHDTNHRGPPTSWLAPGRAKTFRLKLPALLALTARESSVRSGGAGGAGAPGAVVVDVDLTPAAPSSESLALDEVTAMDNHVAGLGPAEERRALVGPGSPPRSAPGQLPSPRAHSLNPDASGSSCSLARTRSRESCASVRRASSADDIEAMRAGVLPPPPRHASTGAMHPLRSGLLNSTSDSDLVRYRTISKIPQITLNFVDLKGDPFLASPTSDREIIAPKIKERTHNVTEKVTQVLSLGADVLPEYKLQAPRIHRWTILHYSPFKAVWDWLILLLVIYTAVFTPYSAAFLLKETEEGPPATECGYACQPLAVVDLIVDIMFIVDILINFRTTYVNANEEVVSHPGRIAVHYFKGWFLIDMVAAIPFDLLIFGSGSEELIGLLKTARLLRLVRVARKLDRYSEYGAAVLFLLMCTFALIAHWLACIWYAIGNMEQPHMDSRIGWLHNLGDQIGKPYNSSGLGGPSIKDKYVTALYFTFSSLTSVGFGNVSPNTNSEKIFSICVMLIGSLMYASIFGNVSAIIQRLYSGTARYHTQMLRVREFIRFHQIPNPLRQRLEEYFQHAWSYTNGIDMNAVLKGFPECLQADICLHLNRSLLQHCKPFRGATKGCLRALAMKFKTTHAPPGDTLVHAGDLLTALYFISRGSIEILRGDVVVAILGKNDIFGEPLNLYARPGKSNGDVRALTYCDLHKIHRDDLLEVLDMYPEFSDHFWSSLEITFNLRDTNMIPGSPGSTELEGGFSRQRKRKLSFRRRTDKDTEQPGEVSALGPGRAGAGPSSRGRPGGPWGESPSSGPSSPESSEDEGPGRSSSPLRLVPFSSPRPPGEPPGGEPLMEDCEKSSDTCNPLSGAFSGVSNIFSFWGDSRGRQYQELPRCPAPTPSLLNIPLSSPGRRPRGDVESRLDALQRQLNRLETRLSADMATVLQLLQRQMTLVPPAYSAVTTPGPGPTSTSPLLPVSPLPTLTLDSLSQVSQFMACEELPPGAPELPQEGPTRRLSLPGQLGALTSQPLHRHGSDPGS
Description: Conclusion: Compounds of the present invention (Example 1) while showing good IGF inhibition, also show decreased Cytochrome P450 inhibition when compared to a known IGF inhibitor (Comparative Example A). Low inhibition of Cytochrome P450 is desirable to ameliorate potential drug: drug interactions. hERG hERG can be tested according to the methods described in Journal of Pharmacolgical and Toxicological Methods 2006, 54, 189-199.

Row | logD [1] | IC50 [2] | IC50 [3] | IC50 [4] | IC50 [5] | SMILES | IC50 [6]
1 | 3.43 | 1.87 µM | > 10 µM | > 10 µM | > 10 µM | CCc1cc(Nc2cc(OC)nc(N3CCC[C@H]3c3cc(-c4ncccn4)no3)n2)n[nH]1 [Comparative Example A, (S)-6-Methoxy-2-{2-[3-(pyrimid-2-yl)isoxazol-5-yl]pyrrolidin-1-yl}-4-(5-ethyl-1H-pyrazol-3-ylamino)pyrimidine] | 25.2 µM
2 | 3.12 | > 10 µM | > 10 µM | > 10 µM | > 10 µM | COc1cc(Nc2cc(C)n[nH]2)nc(N2CCC[C@H]2c2cc(-c3ncccn3)no2)n1 [Example 1, (S)-6-Methoxy-2-{2-[3-(pyrimid-2-yl)isoxazol-5-yl]pyrrolidin-1-yl}-4-(5-methyl-1H-pyrazol-3-ylamino)pyrimidine] | > 32 µM
